These results are taken from ChEMBL document CHEMBL1955728, “3,5-Disubstituted indole derivatives as selective human neuronal nitric oxide synthase (nNOS) inhibitors” (Bioorg Med Chem Lett, 2012).

Active and inactive are the calls of the source. The calls are words filed in the database; no cut-off is given here.

Test [1] concerns the target Nitric oxide synthase 1 (Homo sapiens, UniProt P29475). As to the kind of experiment: Inhibition of human nNOS expressed in baculovirus infected insect Sf9 cells assessed as conversion of [3H]-L-arginine to [3H]-L-citrulline.
Another test has as its target T1, Nitric oxide synthase 3 (Homo sapiens, UniProt P29474).
T1 sequence (P29474 whole entry): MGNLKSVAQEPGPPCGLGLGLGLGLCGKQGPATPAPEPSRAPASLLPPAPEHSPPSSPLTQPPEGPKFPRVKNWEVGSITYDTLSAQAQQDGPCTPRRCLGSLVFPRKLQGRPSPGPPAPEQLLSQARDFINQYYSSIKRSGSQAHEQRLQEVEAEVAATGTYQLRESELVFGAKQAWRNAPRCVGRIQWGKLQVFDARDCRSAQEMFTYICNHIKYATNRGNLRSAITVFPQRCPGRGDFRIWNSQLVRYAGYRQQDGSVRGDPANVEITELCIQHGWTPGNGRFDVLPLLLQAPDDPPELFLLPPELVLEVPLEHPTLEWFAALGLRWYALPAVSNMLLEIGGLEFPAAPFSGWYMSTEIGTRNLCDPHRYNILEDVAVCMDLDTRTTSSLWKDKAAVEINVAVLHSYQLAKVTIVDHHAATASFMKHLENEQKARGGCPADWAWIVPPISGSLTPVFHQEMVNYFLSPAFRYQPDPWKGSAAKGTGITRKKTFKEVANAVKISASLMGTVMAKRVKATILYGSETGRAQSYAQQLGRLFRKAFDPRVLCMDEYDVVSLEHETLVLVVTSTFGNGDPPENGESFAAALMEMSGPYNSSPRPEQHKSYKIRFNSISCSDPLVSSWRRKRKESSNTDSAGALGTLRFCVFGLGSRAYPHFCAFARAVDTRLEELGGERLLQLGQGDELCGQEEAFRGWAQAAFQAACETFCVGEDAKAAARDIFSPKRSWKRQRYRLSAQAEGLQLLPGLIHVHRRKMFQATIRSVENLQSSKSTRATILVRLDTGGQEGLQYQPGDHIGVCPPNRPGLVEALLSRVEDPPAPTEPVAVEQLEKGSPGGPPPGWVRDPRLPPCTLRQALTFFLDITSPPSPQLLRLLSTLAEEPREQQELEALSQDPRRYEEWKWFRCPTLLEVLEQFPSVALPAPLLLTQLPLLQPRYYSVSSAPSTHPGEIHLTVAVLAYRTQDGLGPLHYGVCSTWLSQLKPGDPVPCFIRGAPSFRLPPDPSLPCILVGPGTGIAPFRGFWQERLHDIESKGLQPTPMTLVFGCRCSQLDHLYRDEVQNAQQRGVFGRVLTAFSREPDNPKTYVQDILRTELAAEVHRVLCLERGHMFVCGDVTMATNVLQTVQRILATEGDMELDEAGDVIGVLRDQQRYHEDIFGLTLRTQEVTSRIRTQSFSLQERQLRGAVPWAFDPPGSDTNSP
The experiment in a line: Inhibition of human eNOS expressed in baculovirus infected insect Sf9 cells assessed as conversion of [3H]-L-arginine to [3H]-L-citrulline.

For a further test, the species on record is Homo sapiens. As to the kind of experiment: Selectivity ratio of IC50 for human eNOS to IC50 for human nNOS.
The target in test [2] is Nitric oxide sythases; iNOS & nNOS (Homo sapiens) (UniProt P29475+P35228). The experiment in a line: Selectivity ratio of IC50 for human iNOS to IC50 for human nNOS.
Test [3] relates to Rattus norvegicus. As to the kind of experiment: Antihyperalgesic activity in rat L5/L6 SNL model of neuropathic pain assessed as reversal of thermal hyperalgesia at 10 mg/kg, ip measured after 30 mins. It counts as functional. Particulars: route intraperitoneal.
The target in the next test is Cytochrome P450 2C9 (Homo sapiens, UniProt P11712). As to the kind of experiment: Inhibition of human CYP2C9. It counts as ADME.
In the next test the target is Cytochrome P450 2C19 (Homo sapiens, UniProt P33261). The experiment in a line: Inhibition of human CYP2C19. It counts as ADME.
Another test deals with Cytochrome P450 3A4 (Homo sapiens, UniProt P08684). As to the kind of experiment: Inhibition of human CYP3A4. It counts as ADME.
In another test the target is T2, Cytochrome P450 1A2 (Homo sapiens, UniProt P05177).
T2 sequence (P05177 whole entry): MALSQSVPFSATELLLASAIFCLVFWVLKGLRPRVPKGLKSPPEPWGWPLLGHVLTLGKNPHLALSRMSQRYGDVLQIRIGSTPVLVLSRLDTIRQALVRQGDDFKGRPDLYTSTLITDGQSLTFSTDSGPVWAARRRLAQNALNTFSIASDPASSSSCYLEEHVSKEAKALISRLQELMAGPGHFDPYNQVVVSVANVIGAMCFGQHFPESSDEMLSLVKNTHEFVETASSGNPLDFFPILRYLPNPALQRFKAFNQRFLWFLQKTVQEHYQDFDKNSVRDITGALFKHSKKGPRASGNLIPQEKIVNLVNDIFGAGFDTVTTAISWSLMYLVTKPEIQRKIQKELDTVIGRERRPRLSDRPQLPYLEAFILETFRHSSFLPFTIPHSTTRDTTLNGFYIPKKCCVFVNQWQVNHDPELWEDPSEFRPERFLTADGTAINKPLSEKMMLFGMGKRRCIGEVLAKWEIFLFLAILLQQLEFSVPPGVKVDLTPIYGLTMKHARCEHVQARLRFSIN
The experiment in a line: Inhibition of human CYP1A2. It counts as ADME.

The target of the next test is Cytochrome P450 2D6 (Homo sapiens, UniProt P10635). The experiment in a line: Inhibition of human CYP2D6. It counts as ADME.
Test [4] in a line: Vasoconstrictive activity in human arteries assessed as inhibition of acetylcholine-induced vasorelaxation at 10 uM in presence of thromboxane A2 mimetic agent U46619. It counts as tissue-based, Artery.
The target in test [5] is Nitric oxide synthase 1 (Rattus norvegicus, UniProt P29476). As to the kind of experiment: Inhibition of rat nNOS.
Test [6] concerns Rattus norvegicus. The experiment in a line: Antihyperalgesic activity in rat L5/L6 SNL model of neuropathic pain assessed as reversal of thermal hyperalgesia at 10 mg/kg, ip measured after 30 to 120 mins. It counts as functional, organism-based. More on the design: dose 10 mg/kg.
The target in test [7] is Nitric oxide synthase, inducible (Homo sapiens, UniProt P35228). As to the kind of experiment: Inhibition of human iNOS expressed in baculovirus infected insect Sf9 cells assessed as conversion of [3H]-L-arginine to [3H]-L-citrulline.
Nitric oxide synthase, inducible, sequence (P35228 whole entry): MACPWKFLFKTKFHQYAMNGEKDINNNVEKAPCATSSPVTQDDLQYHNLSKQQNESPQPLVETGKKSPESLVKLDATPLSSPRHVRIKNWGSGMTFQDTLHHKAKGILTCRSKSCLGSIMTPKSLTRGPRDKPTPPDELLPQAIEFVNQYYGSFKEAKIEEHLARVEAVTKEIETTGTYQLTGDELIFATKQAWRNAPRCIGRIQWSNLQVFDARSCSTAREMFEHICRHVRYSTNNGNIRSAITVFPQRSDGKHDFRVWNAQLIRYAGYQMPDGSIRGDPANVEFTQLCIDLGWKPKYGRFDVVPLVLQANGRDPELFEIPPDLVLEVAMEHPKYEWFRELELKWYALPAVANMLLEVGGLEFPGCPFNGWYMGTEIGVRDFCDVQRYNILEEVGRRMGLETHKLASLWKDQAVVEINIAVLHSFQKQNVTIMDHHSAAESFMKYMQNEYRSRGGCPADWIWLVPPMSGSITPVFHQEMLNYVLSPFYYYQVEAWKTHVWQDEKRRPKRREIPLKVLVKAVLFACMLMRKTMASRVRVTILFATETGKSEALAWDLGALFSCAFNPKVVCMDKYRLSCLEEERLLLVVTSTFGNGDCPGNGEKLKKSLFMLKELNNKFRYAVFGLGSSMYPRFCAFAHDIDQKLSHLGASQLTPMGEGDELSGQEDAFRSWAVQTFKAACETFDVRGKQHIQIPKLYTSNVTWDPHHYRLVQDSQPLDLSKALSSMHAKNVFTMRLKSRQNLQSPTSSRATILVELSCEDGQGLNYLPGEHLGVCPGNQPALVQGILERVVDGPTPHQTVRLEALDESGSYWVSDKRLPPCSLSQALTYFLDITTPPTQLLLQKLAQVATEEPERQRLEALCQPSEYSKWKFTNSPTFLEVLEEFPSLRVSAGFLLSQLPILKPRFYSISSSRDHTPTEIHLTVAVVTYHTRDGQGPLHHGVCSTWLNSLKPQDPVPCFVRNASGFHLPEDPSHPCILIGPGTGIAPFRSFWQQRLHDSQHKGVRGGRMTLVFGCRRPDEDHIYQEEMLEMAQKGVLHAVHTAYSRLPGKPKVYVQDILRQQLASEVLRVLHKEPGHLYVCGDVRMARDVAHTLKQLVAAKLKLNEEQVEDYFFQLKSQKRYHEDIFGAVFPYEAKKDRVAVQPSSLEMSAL

Nitric oxide synthase 1 (Homo sapiens, UniProt P29475), sequence (P29475 whole entry): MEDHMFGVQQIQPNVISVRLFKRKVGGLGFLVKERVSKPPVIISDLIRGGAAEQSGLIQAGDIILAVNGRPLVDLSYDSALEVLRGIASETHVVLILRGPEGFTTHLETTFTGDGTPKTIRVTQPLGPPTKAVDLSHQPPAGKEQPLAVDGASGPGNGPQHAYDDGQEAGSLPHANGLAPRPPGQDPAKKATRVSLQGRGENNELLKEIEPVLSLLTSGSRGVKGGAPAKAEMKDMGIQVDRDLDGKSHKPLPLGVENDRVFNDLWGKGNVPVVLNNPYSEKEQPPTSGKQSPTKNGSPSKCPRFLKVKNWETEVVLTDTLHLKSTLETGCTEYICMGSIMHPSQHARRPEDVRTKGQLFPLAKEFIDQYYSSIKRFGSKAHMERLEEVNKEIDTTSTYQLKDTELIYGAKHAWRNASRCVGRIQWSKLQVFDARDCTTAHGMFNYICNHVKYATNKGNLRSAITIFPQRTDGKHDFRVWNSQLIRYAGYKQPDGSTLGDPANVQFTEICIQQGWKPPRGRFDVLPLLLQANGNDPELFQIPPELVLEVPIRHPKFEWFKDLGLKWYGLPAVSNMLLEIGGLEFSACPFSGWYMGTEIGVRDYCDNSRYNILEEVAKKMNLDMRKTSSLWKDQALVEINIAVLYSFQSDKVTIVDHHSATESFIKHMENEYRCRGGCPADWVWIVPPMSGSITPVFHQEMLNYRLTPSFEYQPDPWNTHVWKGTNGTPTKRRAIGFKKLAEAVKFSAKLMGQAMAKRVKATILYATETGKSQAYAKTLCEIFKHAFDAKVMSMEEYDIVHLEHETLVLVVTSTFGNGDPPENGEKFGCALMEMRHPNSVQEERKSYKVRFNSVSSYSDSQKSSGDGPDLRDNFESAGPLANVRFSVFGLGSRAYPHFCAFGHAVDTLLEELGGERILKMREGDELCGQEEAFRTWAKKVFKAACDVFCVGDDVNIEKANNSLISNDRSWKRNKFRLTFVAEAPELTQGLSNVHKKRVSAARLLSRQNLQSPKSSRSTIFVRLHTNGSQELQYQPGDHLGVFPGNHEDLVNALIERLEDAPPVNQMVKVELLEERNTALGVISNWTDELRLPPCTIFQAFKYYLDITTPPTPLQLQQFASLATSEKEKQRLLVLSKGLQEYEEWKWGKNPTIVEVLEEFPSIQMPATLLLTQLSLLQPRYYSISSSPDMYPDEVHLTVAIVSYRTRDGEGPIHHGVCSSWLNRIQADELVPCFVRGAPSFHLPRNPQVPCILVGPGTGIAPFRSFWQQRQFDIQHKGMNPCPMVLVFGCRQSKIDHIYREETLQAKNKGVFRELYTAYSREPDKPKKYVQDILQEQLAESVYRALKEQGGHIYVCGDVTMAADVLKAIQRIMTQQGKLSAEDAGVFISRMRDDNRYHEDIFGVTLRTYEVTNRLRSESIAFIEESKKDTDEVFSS
Nitric oxide sythases; iNOS & nNOS (Homo sapiens), sequence (P29475 whole entry, looked up): as the sequence (P29475 whole entry) above
Nitric oxide sythases; iNOS & nNOS (Homo sapiens), sequence (P35228 whole entry, looked up): as the sequence (P35228 whole entry) above
Nitric oxide synthase 1 (Rattus norvegicus, UniProt P29476), sequence (P29476 whole entry): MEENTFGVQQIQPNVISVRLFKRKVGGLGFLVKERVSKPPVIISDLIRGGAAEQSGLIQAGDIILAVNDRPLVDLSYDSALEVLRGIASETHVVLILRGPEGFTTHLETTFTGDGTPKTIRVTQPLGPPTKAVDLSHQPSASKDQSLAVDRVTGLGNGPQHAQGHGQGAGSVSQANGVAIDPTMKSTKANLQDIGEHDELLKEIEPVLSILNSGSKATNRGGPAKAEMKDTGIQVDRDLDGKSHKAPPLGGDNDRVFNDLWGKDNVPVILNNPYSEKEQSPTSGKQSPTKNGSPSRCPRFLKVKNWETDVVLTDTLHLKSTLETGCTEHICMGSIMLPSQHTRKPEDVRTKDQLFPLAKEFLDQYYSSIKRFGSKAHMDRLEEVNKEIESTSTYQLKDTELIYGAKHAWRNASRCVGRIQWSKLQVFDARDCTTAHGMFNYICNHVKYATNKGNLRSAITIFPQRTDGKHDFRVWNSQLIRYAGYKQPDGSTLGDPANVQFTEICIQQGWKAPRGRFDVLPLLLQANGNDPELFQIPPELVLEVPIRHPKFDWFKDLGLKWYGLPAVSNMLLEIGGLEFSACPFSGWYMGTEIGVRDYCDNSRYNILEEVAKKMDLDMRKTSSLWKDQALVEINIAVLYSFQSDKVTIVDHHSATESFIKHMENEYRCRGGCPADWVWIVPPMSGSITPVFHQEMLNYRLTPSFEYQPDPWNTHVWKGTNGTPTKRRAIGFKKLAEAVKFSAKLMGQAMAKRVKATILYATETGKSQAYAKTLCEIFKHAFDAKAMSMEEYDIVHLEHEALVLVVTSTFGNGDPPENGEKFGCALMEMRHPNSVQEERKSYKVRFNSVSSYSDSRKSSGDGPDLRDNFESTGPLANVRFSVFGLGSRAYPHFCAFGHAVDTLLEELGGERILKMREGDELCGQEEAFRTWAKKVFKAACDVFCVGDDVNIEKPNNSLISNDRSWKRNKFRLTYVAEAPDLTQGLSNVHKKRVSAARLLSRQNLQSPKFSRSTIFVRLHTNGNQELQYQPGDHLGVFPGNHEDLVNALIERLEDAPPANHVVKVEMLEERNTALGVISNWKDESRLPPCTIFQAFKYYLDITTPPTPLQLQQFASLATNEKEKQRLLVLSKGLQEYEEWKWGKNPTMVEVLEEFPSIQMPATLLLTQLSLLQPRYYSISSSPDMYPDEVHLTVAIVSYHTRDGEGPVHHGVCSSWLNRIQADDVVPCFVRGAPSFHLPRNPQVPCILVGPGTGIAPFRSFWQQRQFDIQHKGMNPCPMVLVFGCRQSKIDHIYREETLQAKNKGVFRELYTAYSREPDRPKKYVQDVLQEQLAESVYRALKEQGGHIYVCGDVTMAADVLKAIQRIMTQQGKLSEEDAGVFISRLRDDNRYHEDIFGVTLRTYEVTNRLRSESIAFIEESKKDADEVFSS
Cytochrome P450 3A4, sequence (P08684 whole entry): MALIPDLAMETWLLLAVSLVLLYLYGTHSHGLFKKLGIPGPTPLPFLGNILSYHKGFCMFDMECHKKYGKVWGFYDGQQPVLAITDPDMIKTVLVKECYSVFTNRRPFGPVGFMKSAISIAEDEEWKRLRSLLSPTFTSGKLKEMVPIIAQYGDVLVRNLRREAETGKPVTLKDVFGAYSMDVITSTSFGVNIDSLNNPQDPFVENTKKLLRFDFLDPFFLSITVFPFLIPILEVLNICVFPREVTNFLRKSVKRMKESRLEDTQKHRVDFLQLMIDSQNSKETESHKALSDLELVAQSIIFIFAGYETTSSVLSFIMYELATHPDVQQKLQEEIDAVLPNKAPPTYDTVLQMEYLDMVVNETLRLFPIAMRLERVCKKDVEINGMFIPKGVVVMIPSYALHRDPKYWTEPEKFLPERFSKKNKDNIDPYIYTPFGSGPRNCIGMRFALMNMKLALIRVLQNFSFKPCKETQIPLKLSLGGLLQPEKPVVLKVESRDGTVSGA
Cytochrome P450 2D6, sequence (P10635 whole entry): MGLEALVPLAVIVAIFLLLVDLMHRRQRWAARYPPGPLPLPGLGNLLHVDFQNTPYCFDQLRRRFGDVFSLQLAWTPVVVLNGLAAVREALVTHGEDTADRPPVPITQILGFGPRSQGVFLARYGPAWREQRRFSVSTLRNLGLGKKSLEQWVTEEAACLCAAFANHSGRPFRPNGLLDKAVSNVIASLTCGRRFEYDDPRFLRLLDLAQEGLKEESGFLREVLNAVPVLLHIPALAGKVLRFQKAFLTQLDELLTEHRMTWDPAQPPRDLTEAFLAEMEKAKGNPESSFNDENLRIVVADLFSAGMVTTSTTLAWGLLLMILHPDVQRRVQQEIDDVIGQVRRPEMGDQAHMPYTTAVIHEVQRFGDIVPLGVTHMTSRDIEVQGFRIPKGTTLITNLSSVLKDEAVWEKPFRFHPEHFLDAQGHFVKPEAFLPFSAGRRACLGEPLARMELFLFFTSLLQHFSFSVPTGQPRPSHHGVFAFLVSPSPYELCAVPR

As a reminder, the IC50 is the point on the concentration scale where inhibition reaches its midpoint. `CN1CC=C(c2c[nH]c3ccc(CNC(=N)c4cccs4)cc23)CC1`: the IC50 amounted to 1.29 µM at Nitric oxide synthase 1 [1] and 64.7 µM at Nitric oxide synthase 3.

Regarding `CN1CC=C(c2c[nH]c3ccc(C/N=C(\N)c4cccs4)cc23)CC1`, the Ratio IC50 was 50 in the test filed under Homo sapiens and 66 in test [2].

Consider `CN1CC=C(c2c[nH]c3ccc(NC(=S)NC(=O)c4ccccc4)cc23)CC1`, for which the Ratio IC50 in the test filed under Homo sapiens stood at 3.

`CCS/C(N)=N/c1ccc2[nH]cc(C3=CCN(C)CC3)c2c1`: the Ratio IC50 in the test filed under Homo sapiens was 22.

Turning to `CN1CCC(c2c[nH]c3ccc(NC(=N)c4ccccc4)cc23)CC1`, the half-inhibitory concentration (IC50) at Nitric oxide synthase 1 [1] was determined as 18 µM; on Nitric oxide synthase 3, 249 µM. Besides, in the test listed under Homo sapiens, the Ratio IC50 came out at 14.

Consider `CN1CC=C(c2c[nH]c3ccc(NC(=N)c4ccco4)cc23)CC1.Cl.Cl`, for which the concentration for half-maximal inhibition (IC50) at Nitric oxide synthase 1 [1] is 0.55 µM; at Nitric oxide synthase 3 it was 36.1 µM; on Cytochrome P450 2C9 it was greater than 100 µM; against Cytochrome P450 2C19, greater than 100 µM; against Cytochrome P450 3A4, greater than 100 µM; against Cytochrome P450 1A2, 9.52 µM. For the same compound, the half-maximal inhibitory concentration (IC50) against Cytochrome P450 2D6 was 20.5 µM; in test [4], “Not Active”; at Nitric oxide synthase 1 [5] it was 2.6 µM. Besides, in the test with Rattus norvegicus [3], the Activity is recorded as 94%.

As for `CS/C(N)=N/c1ccc2[nH]cc(C3=CCN(C)CC3)c2c1`, the Ratio IC50 in the test listed under Homo sapiens was 16; in test [2], 8.

With `CN1CC=C(c2c[nH]c3ccc(NC(=N)c4cccs4)cc23)CC1`, the IC50 is 0.19 µM on Nitric oxide synthase 1 [1], 22.4 µM on Nitric oxide synthase 3 and 2.3 µM at Nitric oxide synthase 1 [5].

As for `CN1CC=C(c2c[nH]c3ccc(/N=C(\N)c4ccco4)cc23)CC1`, the results for the Ratio IC50 (in the test filed under Homo sapiens; in test [2]) were 66 and 106, respectively. In the test with Rattus norvegicus [6], the result was Active.

Consider `CN1CC=C(c2c[nH]c3cc(NC(=N)c4cccs4)ccc23)CC1`, for which the Ratio IC50 came out at 33 in the test listed under Homo sapiens and 15 in test [2].

Turning to `CN1CCC(c2c[nH]c3ccc(/N=C(\N)c4ccco4)cc23)CC1`, the figures for the Ratio IC50 (in the test listed under Homo sapiens; in test [2]) were 43 and 48, respectively.

For `CN1CCC(c2c[nH]c3ccc(NC(=N)c4cccs4)cc23)CC1`, the concentration for half-maximal inhibition (IC50) on Nitric oxide synthase 1 [1] was determined as 1.02 µM; on Nitric oxide synthase 3, 24.2 µM.

Consider `CN1CCC(c2c[nH]c3ccc(NC(=N)c4ccco4)cc23)CC1`, for which the IC50 in [7] came to 108 µM.

For the compound `CN1CCC(c2c[nH]c3ccc(/N=C(\N)c4cccs4)cc23)CC1`, in test [2], the Ratio IC50 was 57.

Take `CN1CC=C(c2c[nH]c3ccc(/N=C(\N)c4cccs4)cc23)CC1`: the Ratio IC50 came out at 118 in the test filed under Homo sapiens and 105 in test [2].

Turning to `CSC(=N)Nc1ccc2[nH]cc(C3=CCN(C)CC3)c2c1`, the IC50 in test [7] was 17.1 µM.

`Cc1ccc(C(=N)Nc2ccc3[nH]cc(C4=CCN(C)CC4)c3c2)s1`: the half-maximal inhibitory concentration (IC50) at Nitric oxide synthase 1 [1] came out at 10.4 µM; at Nitric oxide synthase 3 it was 65.3 µM. Also, in the test listed under Homo sapiens, the Ratio IC50 turned out to be 6.
